The results in this text go back to ChEMBL document CHEMBL5543071, “Benzopyran hydrazones with dual PPARα/γ or PPARα/δ agonism and an anti-inflammatory effect on human THP-1 macrophages” (Eur J Med Chem, 2024).

For series [1], the system named is THP-1. The experiment in a line: Cytotoxicity against human THP-1 cells assessed as reduction in cell viability at 10 to 30 uM incubated for 72 hrs. In kind it is toxicity, cell-based. The conditions noted are these: thp-1, 72 h, dose 10-30 µM.
Series [2] relates to THP-1. The experiment in a line: Cytotoxicity against human THP-1 cells assessed as reduction in cell viability at 100 uM incubated for 72 hrs. It counts as toxicity, cell-based. The conditions noted are these: thp-1, 72 h.
In series [3] the target is T1, Peroxisome proliferator-activated receptor gamma (Homo sapiens, UniProt P37231).
T1 sequence (P37231 whole entry): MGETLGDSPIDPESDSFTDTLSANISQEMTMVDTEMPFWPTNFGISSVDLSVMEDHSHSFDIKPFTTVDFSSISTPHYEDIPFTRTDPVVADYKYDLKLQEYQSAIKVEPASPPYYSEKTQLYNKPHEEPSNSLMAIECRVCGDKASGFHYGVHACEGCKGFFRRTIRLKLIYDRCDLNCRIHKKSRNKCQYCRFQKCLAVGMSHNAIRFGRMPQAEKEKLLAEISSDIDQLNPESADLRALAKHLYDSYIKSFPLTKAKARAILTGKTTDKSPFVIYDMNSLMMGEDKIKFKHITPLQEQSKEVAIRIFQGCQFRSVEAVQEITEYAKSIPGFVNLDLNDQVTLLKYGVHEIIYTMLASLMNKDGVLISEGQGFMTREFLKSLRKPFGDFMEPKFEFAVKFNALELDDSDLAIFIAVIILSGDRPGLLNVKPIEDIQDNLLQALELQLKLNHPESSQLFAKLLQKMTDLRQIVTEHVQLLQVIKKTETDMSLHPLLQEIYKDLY
In kind it is cell-based, COS7.
Description: Agonist activity at human PPARgamma transfected in african green monkey COS7 cells assessed transcriptional activation incubated for 24 hrs by luciferase assay

With `C/C(=C\CCC1(C)CCc2cc(OCc3ccc(F)cc3)ccc2O1)CC/C=N/Nc1ncc(Cl)cc1C(F)(F)F` (stereo not given), in the series on THP-1 [1], the Activity result was “Non-Toxic”.

Consider `CC1(CC/C=N/Nc2nc3ccccc3s2)CCc2cc(OCc3ccc(F)cc3)ccc2O1` (stereo not given), for which the Activity result in the series with THP-1 [1] is on record as “Non-Toxic”.

Turning to `CC1(CC/C=N/Nc2ncc(Cl)cc2C(F)(F)F)CCc2cc(OCc3ccc(F)cc3)ccc2O1` (stereo not given), the Activity entry with THP-1 [2] is “Toxic”; in the series with THP-1 [1] it was “Non-Toxic”. In series [3], the response was half-maximal at 5.54 µM (EC50).
